Reference: publication PMC11971462, “Generation and validation of a novel multitarget small molecule in glioblastoma” (Cell Death & Disease, 2025)

Test system: GNS166 cells
Test: Label-free proteomics differential expression
Type: cell-based, human
Experimental: Proteomic studies were performed by the Proteomics Facility of the CIC bioGUNE by label-free relative quantification on nLC MS/MS. […] In both approaches, the top 20 enriched terms were plotted and the pathways were clustered using divisive hierarchical clustering based on pairwise Jaccard distances.

C#CCN(Cc1cc2cc(OCCCN3CCCCC3)ccc2n1S(=O)(=O)c1ccccc1)C(=O)CCCCCCC(=O)NO [DDI]
LogFC STOM_HUMAN (protein P27105 GN=STOM): 1.045
LogFC CD82_HUMAN (protein P27701 GN=CD82): -1.866
Direction PYR1_HUMAN (protein P27708): Down
LogFC PYR1_HUMAN (protein P27708): -0.3818
LogFC GSTM2_HUMAN (protein P28161 GN=GSTM2): 1.203
Direction DPOD1_HUMAN (protein P28340): Down
LogFC DPOD1_HUMAN (protein P28340): -0.5649
LogFC GRAN_HUMAN (protein P28676 GN=GCA): 2.772
Direction CD34_HUMAN (protein P28906): Down
LogFC CD34_HUMAN (protein P28906): -1.0921
LogFC TPP2_HUMAN (protein P29144 GN=TPP2): 0.5124
LogFC CCN2_HUMAN (protein P29279 GN=CCN2): 1.704
Direction EPHA2_HUMAN (protein P29317): Down
LogFC EPHA2_HUMAN (protein P29317): -1.4702
LogFC AL4A1_HUMAN (protein P30038 GN=ALDH4A1): 0.9924
LogFC BLVRB_HUMAN (protein P30043 GN=BLVRB): 1.9711
LogFC CDC27_HUMAN (protein P30260 GN=CDC27): -0.6942
LogFC CCND3_HUMAN (protein P30281 GN=CCND3): 1.575
Direction NMT1_HUMAN (protein P30419): Down
LogFC NMT1_HUMAN (protein P30419): -0.6586
Direction UFO_HUMAN (protein P30530): Down
LogFC UFO_HUMAN (protein P30530): -2.709
Direction ILEU_HUMAN (protein P30740): Down
LogFC ILEU_HUMAN (protein P30740): -0.3615
Direction RIR2_HUMAN (protein P31350): Down
LogFC RIR2_HUMAN (protein P31350): -2.735
Direction DNJA1_HUMAN (protein P31689): Down
LogFC DNJA1_HUMAN (protein P31689): -0.6634
LogFC AKT1_HUMAN (protein P31749 GN=AKT1): -0.2725
Direction TF2H1_HUMAN (protein P32780): Down
LogFC TF2H1_HUMAN (protein P32780): -0.6552
LogFC TTK_HUMAN (protein P33981 GN=TTK): -1.092
LogFC VATE1_HUMAN (protein P36543 GN=ATP6V1E1): 1.641
LogFC PP1G_HUMAN (protein P36873 GN=PPP1CC): 0.989
LogFC GNL1_HUMAN (protein P36915 GN=GNL1): 0.9003
Direction COIL_HUMAN (protein P38432): Down
LogFC COIL_HUMAN (protein P38432): -1.999
LogFC LICH_HUMAN (protein P38571 GN=LIPA): 4.157
LogFC VATA_HUMAN (protein P38606 GN=ATP6V1A): 1.1187
Direction COIA1_HUMAN (protein P39060): Down
LogFC COIA1_HUMAN (protein P39060): -1.248
LogFC MDHC_HUMAN (protein P40925 GN=MDH1): 0.224
LogFC IF2G_HUMAN (protein P41091 GN=EIF2S3): 0.129
LogFC EIF2D_HUMAN (protein P41214 GN=EIF2D): -1.485
Direction UBA7_HUMAN (protein P41226): Down
LogFC UBA7_HUMAN (protein P41226): -1.657
LogFC IPP2_HUMAN (protein P41236 GN=PPP1R2): 1.34
LogFC CSK_HUMAN (protein P41240 GN=CSK): -0.3935
LogFC LAP2A_HUMAN (protein P42166 GN=TMPO): -1.129
LogFC LAP2B_HUMAN (protein P42167 GN=TMPO): -0.9256
LogFC STAT1_HUMAN (protein P42224 GN=STAT1): 0.5798
LogFC PK3CA_HUMAN (protein P42336 GN=PIK3CA): -1.283
LogFC MTOR_HUMAN (protein P42345 GN=MTOR): -0.7122
LogFC CNDD3_HUMAN (protein P42695 GN=NCAPD3): -2.052
LogFC THIM_HUMAN (protein P42765 GN=ACAA2): 1.09
Direction KI67_HUMAN (protein P46013): Down
LogFC KI67_HUMAN (protein P46013): -1.787
LogFC ATRX_HUMAN (protein P46100 GN=ATRX): -0.9089
Direction IF2M_HUMAN (protein P46199): Down
LogFC IF2M_HUMAN (protein P46199): -0.8269
LogFC MP2K3_HUMAN (protein P46734 GN=MAP2K3): 1.1042
Direction STT3A_HUMAN (protein P46977): Down
LogFC STT3A_HUMAN (protein P46977): -0.5679
LogFC PA24A_HUMAN (protein P47712 GN=PLA2G4A): 2.918
LogFC IF1AX_HUMAN (protein P47813 GN=EIF1AX): 0.7555
Direction AGRE5_HUMAN (protein P48960): Down
LogFC AGRE5_HUMAN (protein P48960): -1.142
LogFC UB2R1_HUMAN (protein P49427 GN=CDC34): 1.5155
Direction SYHM_HUMAN (protein P49590): Down
LogFC SYHM_HUMAN (protein P49590): -1.4939
LogFC VPS41_HUMAN (protein P49754 GN=VPS41): 1.216
Direction NU153_HUMAN (protein P49790): Down
LogFC NU153_HUMAN (protein P49790): -1.0035
Direction DNLI3_HUMAN (protein P49916): Down
LogFC DNLI3_HUMAN (protein P49916): -1.6
LogFC GBG4_HUMAN (protein P50150 GN=GNG4): 2.6107
Direction SERPH_HUMAN (protein P50454): Down
LogFC SERPH_HUMAN (protein P50454): -1.017
Direction KNTC1_HUMAN (protein P50748): Down
LogFC KNTC1_HUMAN (protein P50748): -0.8446
LogFC BCAM_HUMAN (protein P50895 GN=BCAM): 1.4044
LogFC PLCD1_HUMAN (protein P51178 GN=PLCD1): 0.5988
LogFC SMCA2_HUMAN (protein P51531 GN=SMARCA2): -1.3906
Direction SMCA4_HUMAN (protein P51532): Down
LogFC SMCA4_HUMAN (protein P51532): -1.513
LogFC TPMT_HUMAN (protein P51580 GN=TPMT): 1.506
LogFC IRAK1_HUMAN (protein P51617 GN=IRAK1): -0.8883
Direction GPM6A_HUMAN (protein P51674): Down
LogFC GPM6A_HUMAN (protein P51674): -2.493
Direction STA5B_HUMAN (protein P51692): Down
LogFC STA5B_HUMAN (protein P51692): -2.183
LogFC PLXA3_HUMAN (protein P51805 GN=PLXNA3): 0.8663
Direction CCNH_HUMAN (protein P51946): Down
LogFC CCNH_HUMAN (protein P51946): -0.7175
LogFC UB2E1_HUMAN (protein P51965 GN=UBE2E1): -1.604
Direction IMA1_HUMAN (protein P52292): Down
LogFC IMA1_HUMAN (protein P52292): -0.7516
LogFC EFNB2_HUMAN (protein P52799 GN=EFNB2): 1.665
LogFC ARFP1_HUMAN (protein P53367 GN=ARFIP1): 1.754
Direction ACLY_HUMAN (protein P53396): Down
LogFC ACLY_HUMAN (protein P53396): -0.3852
Direction SC5A3_HUMAN (protein P53794): Down
LogFC SC5A3_HUMAN (protein P53794): -1.548
LogFC SMTN_HUMAN (protein P53814 GN=SMTN): -1.694
LogFC HSP72_HUMAN (protein P54652 GN=HSPA2): 3.712
LogFC SNAA_HUMAN (protein P54920 GN=NAPA): 0.6489
Direction IF5_HUMAN (protein P55010): Down
LogFC IF5_HUMAN (protein P55010): -0.5429
LogFC S12A2_HUMAN (protein P55011 GN=SLC12A2): 0.5141
LogFC XPO2_HUMAN (protein P55060 GN=CSE1L): -0.4776
LogFC BI1_HUMAN (protein P55061 GN=TMBIM6): -0.6524
Direction MAZ_HUMAN (protein P56270): Down
LogFC MAZ_HUMAN (protein P56270): -1.733
Direction SC61G_HUMAN (protein P60059): Down
